Measured values as given in patent publication US10604514B2, “6-(5-membered heteroaryl)isoquinolin-3-yl carboxamides and preparation and use thereof” (Samumed, LLC, priority 2017, dated 2020).
Read-outs that look alike come from different tables or passages of the source.

Key:
[1] = test system: Wnt activity (Sp5-Luc reporter in SW480 colon carcinoma cells); assay: Wnt activity screening assay (Sp5-Luc reporter gene assay); format: cell-based, human; conditions: Homo sapiens; for EC50: Sp5-Luc reporter, SW480 cells, 36 to 48 hours; for inhibition at 10 µM: SW480, read-out: percent inhibition at 10 μM
In short: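 Compounds at 10 points (1:3 steps, top 10 μM, 0.1% DMSO final) were incubated 36 to 48 h at 37° C with stable Sp5-Luc SW480 reporter cells in 1% FBS medium. Luciferase luminescence was then read and expressed relative to DMSO-only cells. Four-parameter variable-slope fitting yielded EC50 values.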

GSK3β kinase = GSK3β kinase (Homo sapiens (Human), UniProt P49841); assay: GSK3β kinase assay (Ser/Thr 09 peptide Z-lyte, FRET); format: biochemical; conditions: method text calls the value IC50;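 also: Coumarin/fluorescein emission ratio converted to percent phosphorylation against unphosphorylated (0%) and phosphorylated (100%) controls, 1 h compound incubation at room temperature, 11-point threefold dilutions from 10 µM, run in duplicate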
GSK3β kinase, sequence (P49841 whole entry): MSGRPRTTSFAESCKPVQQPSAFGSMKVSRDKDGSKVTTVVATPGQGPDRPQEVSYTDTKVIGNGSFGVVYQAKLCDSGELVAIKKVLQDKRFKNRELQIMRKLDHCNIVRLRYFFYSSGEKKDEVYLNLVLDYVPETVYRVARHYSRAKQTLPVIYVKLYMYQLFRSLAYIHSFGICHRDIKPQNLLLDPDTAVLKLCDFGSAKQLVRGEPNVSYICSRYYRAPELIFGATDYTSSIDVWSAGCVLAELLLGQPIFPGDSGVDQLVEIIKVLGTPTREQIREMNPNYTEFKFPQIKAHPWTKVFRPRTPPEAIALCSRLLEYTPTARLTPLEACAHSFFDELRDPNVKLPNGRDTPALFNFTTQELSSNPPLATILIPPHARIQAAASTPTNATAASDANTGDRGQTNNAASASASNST
Procedure: Representative compounds were screened using the assay procedure for GSK30 kinase activity as described below.
Each compound is dissolved in DMSO as a 10 mM stock and used to prepare compound source plates. Serial dilution (1:3, 11-point dose-response curves from 10 M to 0.0003 μM) and compound transfer was performed using the ECHO 550 (Labcyte, Sunnyvale, Calif.) into 1536-well black-walled round bottom plates (Corning).
This is a non-radioactive assay using fluorescence resonance energy transfer (FRET) between coumarin and fluorescein to detect kinase activity which is represented as ratio of coumarin emission/fluorescein emission.
The mixture is allowed to incubate with the representative compounds for one hour at room temperature. All reactions were performed in duplicate. Unphosphorylated (“0% Control”) and phosphorylated (“100% control”) forms of Ser/Thr 18 serve as control reactions.
After incubation, diluted Development Buffer is added to the reaction and allowed to further incubate for one hour at room temperature.
The percent phosphorylation is then calculated using the following formula: [1−((Em ratio×F100%)−C100%)/((C0%−C100%)+(Em ratio×(F100%−F0%)))].
Dose-response curves are generated and inhibitory concentration (IC50) values are calculated using non-linear regression curve fit in the Dotmatics' Studies Software (Bishops Stortford, UK).

[2] = test system: Tau phosphorylation at Ser396 (pSer396), SH-SY5Y cells; assay: Tau phosphorylation at Ser396 (pSer396) in SH-SY5Y cells, ELISA/western blot; format: cell-based, human; conditions: Homo sapiens; SH-SY5Y cells, overnight (16-18 h); read-out: pSer396 Tau EC50;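 also: cell lysates probed for reduced Tau pSer396 via ELISA (colorimetric) or western blot (chemiluminescence), both with one shared pSer396 antibody, EC50 for lowering phosphorylation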
[3] = test system: SW480 colon carcinoma cells; assay: Cell viability assay (CellTiter-Glo) in SW480 cells; format: cell-based, human; conditions: Homo sapiens; for EC50: 96 h, cell viability, SW480 cells, four days, CellTiter-Glo; for inhibition at 10 µM: SW480, read-out: percent inhibition at 10 μM;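 as to all read-outs here: SW480 cells stably carrying an Sp5-luciferase TCF/LEF reporter, luminescent ATP signal as viability measure, DMSO-treated cells as control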
[4] = test system: LL29 cells (primary human fibroblasts derived from IPF patients), α-smooth muscle actin; assay: Inhibition of fibrotic process: αSMA in TGF-β1-treated primary human fibroblasts from IPF patients (LL29 cells); format: cell-based; conditions: Homo sapiens, Fibroblast; for EC50: 96 h, % αSMA-positive LL29 cells, TGF-β1 20 ng/mL, 4 days
In short: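 Read-out is the percentage of αSMA-positive cells by high-content imaging, excluding SYTOX green-positive dead/apoptotic cells, normalized to TGF-β1-only wells on the same plate. LL29 cells were exposed for 4 days at 37 °C to 20 ng/mL TGF-β1 plus 11-point, 2-fold compound dilutions in 0.1% DMSO.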

IL-6 = IL-6 inhibition in LPS-stimulated human peripheral blood mononuclear cells (HTRF); format: cell-based; conditions: Homo sapiens, PBMC; for EC50: IL-6, LPS-stimulated huPBMCs, HTRF; for inhibition at 10 µM: read-out: percent value in parentheses below EC50 >10
In short: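 EC50 from a 4-parameter fit of DMSO-normalized HTRF (665/620 nm) IL-6 signal, duplicates. Compound was added to fresh human PBMCs in 1% FBS RPMI for 2 h (top 10 μM, 3-fold, 0.25% DMSO) before 22 h stimulation with LPS at 50 ng/mL, 37 °C.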

DYRK1A kinase = DYRK1A kinase (Homo sapiens (Human), UniProt Q13627); assay: DYRK1A kinase assay (Ser/Thr 18 peptide Z-lyte, FRET)
[5] = DYRK1A kinase, method text calls the value IC50

| Structure (SMILES) | EC50 [1] [nM] | EC50 (GSK3β kinase) [nM] | EC50 [2] [nM] | EC50 [3] [nM] | EC50 (IL-6) [nM] | EC50 (DYRK1A kinase; [5]) [nM] | EC50 (DYRK1A kinase) [nM] | EC50 [4] [nM] | inhibition at 10 µM (IL-6) [%] | inhibition at 10 µM [1] [%] | inhibition at 10 µM [3] [%] | inhibition at 10 µM ([4]; read-out: percent inhibition at 10 μM) [%] |
| --- | --- | --- | --- | --- | --- | --- | --- | --- | --- | --- | --- | --- |
| Cc1ncc(-c2ccc3cnc(NC(=O)[C@H]4CC[C@H](N(C)C5COC5)CC4)cc3c2)o1 [Compound 37, trans-4-(methyl(oxetan-3-yl)amino)-N-(6-(2-methyloxazol-5-yl)isoquinolin-3-yl)cyclohexane-1-carboxamide] | 4040 | 138 | 497 | 6890 | 1340 | 7 | – | 244 | – | – | – | – |
| Cc1nnc(-c2ccc3cnc(NC(=O)C4CCN(CCC(F)(F)F)CC4)cc3c2)s1 [Compound 38, N-(6-(5-Methyl-1,3,4-thiadiazol-2-yl)isoquinolin-3-yl)-1-(3,3,3-trifluoropropyl)piperidine-4-carboxamide] | 743 | 9 | 67 | 1080 | > 10000 | 6 | – | 112 | 3.2 | – | – | – |
| [2H]C1([2H])OC([2H])([2H])C([2H])([2H])N(CC(=O)Nc2cc3cc(-c4cnn(C)c4)ccc3cn2)C1([2H])[2H] [Compound 39, N-(6-(1-Methyl-1H-pyrazol-4-yl)isoquinolin-3-yl)-2-(morpholino-d8) acetamide] | > 10000 | 96 | 538 | > 10000 | 9400 | – | 15 | 2590 | – | 36.3 | 27.3 | – |
| [2H]C1([2H])OC([2H])([2H])C([2H])([2H])N(CC(=O)Nc2cc3cc(-c4cnc(C)o4)ccc3cn2)C1([2H])[2H] [Compound 40, N-(6-(2-Methyloxazol-5-yl)isoquinolin-3-yl)-2-(morpholino-d8)acetamide] | > 10000 | 120 | 688 | > 10000 | 9700 | – | 29 | 3710 | – | 29.6 | 27 | – |
| [2H]C1([2H])OC([2H])([2H])C([2H])([2H])N(CC(=O)Nc2cc3cc(-c4cnc(C)s4)ccc3cn2)C1([2H])[2H] [Compound 41, N-(6-(2-Methylthiazol-5-yl)isoquinolin-3-yl)-2-(morpholino-d8)acetamide] | > 10000 | 203 | 869 | > 10000 | > 10000 | – | 27 | 1220 | 9.4 | 29.7 | 10.7 | – |

Further lines, with some results ahead:

| EC50 [1] [nM] | EC50 (GSK3β kinase) [nM] | EC50 [2] [nM] | EC50 [3] [nM] | EC50 (IL-6) [nM] | EC50 (DYRK1A kinase; [5]) [nM] | EC50 (DYRK1A kinase) [nM] | Structure (SMILES) | EC50 [4] [nM] | inhibition at 10 µM (IL-6) [%] | inhibition at 10 µM [1] [%] | inhibition at 10 µM [3] [%] | inhibition at 10 µM ([4]; read-out: percent inhibition at 10 μM) [%] |
| --- | --- | --- | --- | --- | --- | --- | --- | --- | --- | --- | --- | --- |
| > 10000 | 4670 | > 10000 | > 10000 | > 10000 | 12 | – | C[C@H]1CN(C)CCN1C(=O)Nc1cc2cc(-c3cnn(C)c3)ccc2cn1 [Compound 42, (S)-2,4-Dimethyl-N-(6-(1-methyl-1H-pyrazol-4-yl)isoquinolin-3-yl) piperazine-1-carboxamide] | > 10000 | 6.4 | 25.5 | 26.5 | 6.4 |
| 239 | 66 | 362 | 4980 | 1070 | 2 | – | Cc1ncc(-c2ccc3cnc(NC(=O)[C@H]4CC[C@H](CO)CC4)cc3c2)o1 [Compound 43, trans-4-(hydroxymethyl)-N-(6-(2-methyloxazol-5-yl)isoquinolin-3-yl)cyclohexane-1-carboxamide] | 230 | – | – | – | – |
| 799 | 65 | 445 | 2800 | 1130 | 5 | – | Cc1ncc(-c2ccc3cnc(NC(=O)[C@H]4CC[C@H](N(C)CC(F)F)CC4)cc3c2)o1 [Compound 44, trans-4-((2,2-Difluoroethyl)(methyl)amino)-N-(6-(2-methyloxazol-5-yl)isoquinolin-3-yl)cyclohexane-1-carboxamide] | 247 | – | – | – | – |
